From patent publication US12329737B2, “Dendrilla membranosa compounds, derivatives thereof, and uses thereof” (UNIVERSITY OF SOUTH FLORIDA, priority 2018, dated 2025)
Values after ≈ are worked out from the molar mass of the structure shown.

Legend:
J774A.1 = experiment: mammalian cytotoxicity assay; type: cell-based
[1] = tested on: multidrug resistant S. aureus biofilm; experiment: minimum biofilm eradication concentration (MBEC), MRSA biofilm; type: cell-based; conditions: for MBEC90: 90% of population eradicated compared to no treatment
From the text: Each sample tested in triplicate for all concentrations. Calculated based on no drug controls and represented as a log 10 scale. Error=±SEM. MBEC 90/50: level to which 90% or 50% of the population was eradicated compared to no treatment.

MRSA biofilm = experiment: standard biofilm assay; type: cell-based, Staphylococcus aureus
MRSA = experiment: standard MRSA assay (MIC); type: cell-based; conditions: Staphylococcus aureus

| SMILES | Cytotoxicity (μM) against strain J774A.1 (J774A.1) | other results |
| --- | --- | --- |
| CC(=O)O[C@@H]1OC2OC(=O)[C@H](C)c3c([C@@]4(C)CCCC(C)(C)C4)ccc1c32 (stereo partly drawn) [Compound 1, aplysulphurin] | 12.3 µM | – |
| CC(=O)O[C@@H]1OC2OC(=O)[C@H](C)C3=C([C@@]4(C)CCCC(C)(C)C4)CCC1C32 (stereo partly drawn) [Compound 2, tetrahydroaplysulphurin] | >133 µM | – |
| COC(=O)[C@H](C)c1c([C@@]2(C)CCCC(C)(C)C2)ccc2c1C(=O)OC2 [Compound 3, membranolide] | 76.8 µM | MBEC90 [1]: < 25 mg/mL |
| COC(=O)[C@H](C)C1=C([C@@]2(C)CCCC(C)(C)C2)CCC2COC(=O)C12 (stereo partly drawn) [Compound 4, tetrahydromembranolide] | 64.9 µM | – |
| CO[C@H]1OC(=O)[C@H](C)c2c([C@@]3(C)CCCC(C)(C)C3)ccc(C=O)c21 [Compound 5, membranoid A] | 54.6 µM | – |
| CO[C@H]1O[C@H](OC)c2c1ccc([C@@]1(C)CCCC(C)(C)C1)c2[C@@H](C)C(=O)O [Compound 6, membranoid B] | >133 µM | – |
| CO[C@@H]1O[C@@H](OC)c2c1ccc([C@@]1(C)CCCC(C)(C)C1)c2[C@@H](C)C(=O)O [Compound 7, membranoid C] | >133 µM | MRSA biofilm bioactivity [1]: lacked MRSA biofilm bioactivity |
| CO[C@@H]1O[C@H](OC)c2c1ccc([C@@]1(C)CCCC(C)(C)C1)c2[C@@H](C)C(=O)O [Compound 8, membranoid D] | >133 µM | MRSA biofilm bioactivity [1]: lacked MRSA biofilm bioactivity |
| CO[C@H]1O[C@@H](OC)c2c1ccc([C@@]1(C)CCCC(C)(C)C1)c2[C@@H](C)C(=O)O [Compound 9, membranoid E] | 95 µM | – |
| C[C@H]1C(=O)O[C@@H](O)c2c(C=O)ccc([C@@]3(C)CCCC(C)(C)C3)c21 [Compound 10, membranoid G] | >151 µM | – |
| CO[C@@H]1O[C@@H](OC(C)=O)c2ccc([C@@]3(C)CCCC(C)(C)C3)c([C@@H](C)C(=O)O)c21 [Compound 11, membranoid X] | 62.9 µM | – |
| COC(=O)[C@H](C)c1c([C@@]2(C)CCCC(C)(C)C2)ccc2c1[C@H](O)OC2=O [Compound 12, membranoid Y] | >139 µM | – |
| CCC1=C(C=O)[C@H](C(=O)OC)CC[C@@H]1[C@@]1(C)CCCC(C)(C)C1 [Compound 17] | – | MBEC90 [1]: 50 mg/mL |
| CC(=O)O[C@@H]1OC2OC(=O)[C@H](C)[C@@]34OO[C@@]([C@@]5(C)CCCC(C)(C)C5)(CCC1C23)O4 (stereo partly drawn) [Compound 18, Tetrahydroaplytrioxolane] | – | MRSA biofilm bioactivity [1]: lacked MRSA biofilm bioactivity |
| CC(=O)O[C@@H]1O[C@H](OC(C)=O)[C@H]2C(=O)[C@@H]([C@@]3(C)CCCC(C)(C)C3)CC[C@@H]12 [Compound 19, keto-9, 11-dihydrogracilin A] | – | MBEC90 [1]: 50 mg/mL |
| C[C@@H](CO)c1c([C@@]2(C)CCCC(C)(C)C2)ccc(CO)c1CO [Compound 20, Mebranolide triol] | – | MRSA biofilm bioactivity [1]: lacked MRSA biofilm bioactivity |
| CC(=O)O[C@@H]1OC2OC(=O)C3=C(C)C([C@@]4(C)CCCC(C)(C)C4)CCC1C32 (stereo partly drawn) [Compound 24, Darwinolide] | 20.13 µM | MIC in a standard biofilm assay (MRSA biofilm): 33.2 µM (≈ 12.5 µg/mL); MBEC90 [1]: 35 mg/mL; MIC (MRSA): ~133 µM (≈ 50 µg/mL); mammalian (J773) toxicity (J774A.1; J773 cells, mammalian cytotoxicity assay): 73.4 µM |
